One molecule from ChEMBL document CHEMBL2074265, “Isolation and characterization of Caco-2 subclones expressing high levels of multidrug resistance protein efflux transporter” (Pharm Res, 2003) can be followed below.

The assay has as its target ATP-dependent translocase ABCB1 (Homo sapiens, UniProt P08183).

For orientation: Ki means the equilibrium dissociation constant of an inhibitor or competing ligand from its target. A high value points to a looser hold on the target.

Molecules are shown by their SMILES.

Chain of ATP-dependent translocase ABCB1 (P08183 whole entry): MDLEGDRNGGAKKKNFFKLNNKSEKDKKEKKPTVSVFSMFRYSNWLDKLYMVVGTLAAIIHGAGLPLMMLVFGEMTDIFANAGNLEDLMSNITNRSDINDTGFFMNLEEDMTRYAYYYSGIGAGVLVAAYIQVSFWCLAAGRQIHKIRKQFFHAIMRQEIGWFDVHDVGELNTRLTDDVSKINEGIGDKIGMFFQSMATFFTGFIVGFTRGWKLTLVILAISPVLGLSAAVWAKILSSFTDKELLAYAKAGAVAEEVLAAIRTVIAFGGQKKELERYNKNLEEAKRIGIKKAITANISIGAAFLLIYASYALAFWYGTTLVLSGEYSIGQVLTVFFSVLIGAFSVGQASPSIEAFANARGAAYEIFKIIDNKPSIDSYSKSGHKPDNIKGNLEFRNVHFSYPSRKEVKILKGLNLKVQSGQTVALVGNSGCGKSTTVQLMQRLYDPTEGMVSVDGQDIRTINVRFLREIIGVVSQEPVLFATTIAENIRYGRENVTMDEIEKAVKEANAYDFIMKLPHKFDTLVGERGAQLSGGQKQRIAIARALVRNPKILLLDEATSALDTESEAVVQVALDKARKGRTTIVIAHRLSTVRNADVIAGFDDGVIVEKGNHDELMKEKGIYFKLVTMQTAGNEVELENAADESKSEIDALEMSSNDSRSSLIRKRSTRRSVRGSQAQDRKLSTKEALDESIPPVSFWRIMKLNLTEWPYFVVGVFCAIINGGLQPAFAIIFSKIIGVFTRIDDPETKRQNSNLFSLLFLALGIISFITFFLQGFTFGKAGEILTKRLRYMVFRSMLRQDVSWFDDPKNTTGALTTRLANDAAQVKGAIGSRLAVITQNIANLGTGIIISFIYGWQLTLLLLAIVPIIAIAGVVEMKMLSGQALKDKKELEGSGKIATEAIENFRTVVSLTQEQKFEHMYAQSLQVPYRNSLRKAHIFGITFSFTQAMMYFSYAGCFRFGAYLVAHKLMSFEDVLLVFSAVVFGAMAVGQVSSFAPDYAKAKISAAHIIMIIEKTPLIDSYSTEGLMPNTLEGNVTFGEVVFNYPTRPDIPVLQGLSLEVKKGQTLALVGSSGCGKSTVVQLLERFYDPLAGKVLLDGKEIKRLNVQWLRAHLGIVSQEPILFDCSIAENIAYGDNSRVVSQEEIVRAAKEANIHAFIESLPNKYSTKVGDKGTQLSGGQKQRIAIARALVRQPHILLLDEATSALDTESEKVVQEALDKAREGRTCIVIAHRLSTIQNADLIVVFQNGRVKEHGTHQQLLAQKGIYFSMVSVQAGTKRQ
Description: TP_TRANSPORTER: transepithelial transport of digoxin (basal to apical) in Caco-2 cells

`COC(=O)[C@H]1[C@H]2C[C@@H]3c4[nH]c5cc(OC)ccc5c4CCN3C[C@H]2C[C@@H](OC(=O)c2cc(OC)c(OC)c(OC)c2)[C@@H]1OC` [RESERPINE]: the Ki stood at 2310 nM.
